Drawing on ChEMBL document CHEMBL1130857, “Synthesis and biological activity of lactones en route to Altohyrtin A” (1998), this text covers Activity, GI50 and CC50 for two molecules.

The structures appear in SMILES notation. ≈ marks a conversion by molar mass, not a printed value. Calls of active or inactive are those of the source. The calls are words filed in the database; no cut-off is given here.

One test has as its system NCI-H460. Briefly: Antitumor activity against Lung-NSC NCI-H460 cells was evaluated; No biological activity. The format is functional, cell-based. The settings on record: Homo sapiens.
Another test concerns DU-145. In words: Antitumor activity against Prostate DU-145 cells was evaluated; No biological activity. The test is classed as functional, cell-based. The settings on record: Homo sapiens.
The next test deals with KAT-4. Briefly: Antitumor activity against Thyroid ca KAT-4 cells was evaluated; No biological activity. The format is functional, cell-based. To be noted: Homo sapiens.
For test [1], the species on record is Homo sapiens. In words: Antitumor activity against Pharynx-sq FADU cells was evaluated; No biological activity. The format is functional.
The test system of another test is BXPC-3. Briefly: Antitumor activity against Pancreas-a BXPC-3 cells was evaluated; No biological activity. The format is functional, cell-based. The settings on record: Homo sapiens.
Another test has as its system SW 1736. Briefly: Antitumor activity against Thyroid ca SW 1736 cells was evaluated; No biological activity. To be noted: Homo sapiens. The format is functional, cell-based.
Test [2] can be described thus: Antitumor activity was evaluated by the total growth inhibition of Pancreas-a BXPC-3 cells; Active. The format is functional. The settings on record: Homo sapiens, BXPC-3, read-out: TGI50.
A short description of test [3]: Antitumor activity was evaluated by the total growth inhibition of Thyroid ca KAT-4 cells; Active. The test is classed as functional. To be noted: Homo sapiens, KAT-4, read-out: TGI50.
The nature of test [4]: Antitumor activity was evaluated by the total growth inhibition of Lung-NSC NCI-H460 cells; Active. The format is functional. To be noted: Homo sapiens, NCI-H460, read-out: TGI50.
The nature of test [5]: Antitumor activity was evaluated by the lethal concentration of Thyroid ca SW 1736 cells; Active. The test is classed as functional. To be noted: Homo sapiens, read-out: LC50 (the source's name).
The nature of test [6]: Antitumor activity was evaluated by the growth inhibition of Pancreas-a BXPC-3 cells; Active. The format is functional. The settings on record: Homo sapiens.
Test [7] can be described thus: Antitumor activity was evaluated by the growth inhibition of Lung-NSC NCI-H460 cells; Active. The format is functional. To be noted: Homo sapiens.
The nature of test [8]: Antitumor activity was evaluated by the lethal concentration of Lung-NSC NCI-H460 cells; Active. The test is classed as functional. The settings on record: Homo sapiens, read-out: LC50 (the source's name).
A short description of test [9]: Antitumor activity was evaluated by the total growth inhibition of Thyroid ca SW 1736 cells; Active. The format is functional. The settings on record: Homo sapiens, SW-1736, read-out: TGI50.
The nature of test [10]: Antitumor activity was evaluated by the growth inhibition of Thyroid ca KAT-4 cells; Active. The test is classed as functional. To be noted: Homo sapiens.
A short description of test [11]: Antitumor activity was evaluated by the total growth inhibition of Prostate DU-145 cells; Active. The format is functional. The settings on record: Homo sapiens, DU-145, read-out: TGI50.
A short description of test [12]: Antitumor activity was evaluated by the growth inhibition of Thyroid ca SW 1736 cells; Active. The format is functional. The settings on record: Homo sapiens.
Test [13] is filed under the species Homo sapiens. Briefly: Antitumor activity was evaluated by the growth inhibition of Pharynx-sq FADU cells; Active. The format is functional.
Test [14] can be described thus: Antitumor activity was evaluated by the growth inhibition of Prostate DU-145 cells; Active. The test is classed as functional. To be noted: Homo sapiens.
Test [15] is filed under the species Homo sapiens. Briefly: Antitumor activity was evaluated by the total growth inhibition of Pharynx-sq FADU cells; Active. The settings on record: read-out: TGI50. The test is classed as functional.
Test [16] can be described thus: Antitumor activity was evaluated by the lethal concentration of Thyroid ca KAT-4 cells; Active. The test is classed as functional. The settings on record: Homo sapiens, read-out: LC50 (the source's name).
Test [17] can be described thus: Antitumor activity was evaluated by the lethal concentration of Prostate DU-145 cells; Active. The test is classed as functional. To be noted: Homo sapiens, read-out: LC50 (the source's name).
Test [18] is filed under the species Homo sapiens. In words: Antitumor activity was evaluated by the lethal concentration of Pharynx-sq FADU cells; Active. The test is classed as functional. The settings on record: read-out: LC50 (the source's name).
Test [19] can be described thus: Antitumor activity was evaluated by the lethal concentration of Pancreas-a BXPC-3 cells; Active. The test is classed as functional. To be noted: Homo sapiens, read-out: LC50 (the source's name).

As to `C[C@H]1C(COCc2ccccc2)OC(=O)[C@@H](O)[C@@H]1O` (some centres undefined), the result in the test with NCI-H460, with DU-145, in the test with KAT-4, in the test listed under Homo sapiens [1], with BXPC-3 and in the test with SW 1736 was inactive.

Consider `C[C@@H]1[C@@H](O)[C@H](O)C(=O)O[C@H]1[C@H]1COC(C)(C)O1`, for which the GI50 in [2] was more than 10 µg/mL; in [3], more than 10 µg/mL; in [4], more than 10 µg/mL; in test [6] it was more than 10 µg/mL; in [7], 2.9 µg/mL (≈ 11.8 µM); in test [9], more than 10 µg/mL. Besides, the GI50 was more than 10 µg/mL in test [10]; more than 10 µg/mL in test [11]; 8.5 µg/mL (≈ 34.5 µM) in test [12]; 3.7 µg/mL (≈ 15 µM) in the test listed under Homo sapiens [13]; 2.7 µg/mL (≈ 11 µM) in test [14]; more than 10 µg/mL in the test listed under Homo sapiens [15]. Further, the CC50 (in test [5]; in test [8]; in [16]; in [17]; in the test listed under Homo sapiens [18]; in [19]) was more than 10000 µg/mL in each case.
